Results from patent US9718823B2, “2, 6-Di-nitrogen-containing substituted purine derivative, and preparation method, pharmaceutical composition and use thereof” (Zhejiang Medicine Co., Ltd. Xinchang Pharmaceutical Factory, priority 2013, dated 2017).

Tests used:
Format in all cases: biochemical
PDGFR β enzyme = molecular target: T1, PDGFR β enzyme (Homo sapiens, UniProt P09619); experiment: Inhibitory activity to PDGFR β enzyme, HTRF kinEASE TK kit; settings: read-out: Inhibition rate % (PDGFR β)
T1 construct: purchased Invitrogen P3082
T1 sequence (P09619 33-1106): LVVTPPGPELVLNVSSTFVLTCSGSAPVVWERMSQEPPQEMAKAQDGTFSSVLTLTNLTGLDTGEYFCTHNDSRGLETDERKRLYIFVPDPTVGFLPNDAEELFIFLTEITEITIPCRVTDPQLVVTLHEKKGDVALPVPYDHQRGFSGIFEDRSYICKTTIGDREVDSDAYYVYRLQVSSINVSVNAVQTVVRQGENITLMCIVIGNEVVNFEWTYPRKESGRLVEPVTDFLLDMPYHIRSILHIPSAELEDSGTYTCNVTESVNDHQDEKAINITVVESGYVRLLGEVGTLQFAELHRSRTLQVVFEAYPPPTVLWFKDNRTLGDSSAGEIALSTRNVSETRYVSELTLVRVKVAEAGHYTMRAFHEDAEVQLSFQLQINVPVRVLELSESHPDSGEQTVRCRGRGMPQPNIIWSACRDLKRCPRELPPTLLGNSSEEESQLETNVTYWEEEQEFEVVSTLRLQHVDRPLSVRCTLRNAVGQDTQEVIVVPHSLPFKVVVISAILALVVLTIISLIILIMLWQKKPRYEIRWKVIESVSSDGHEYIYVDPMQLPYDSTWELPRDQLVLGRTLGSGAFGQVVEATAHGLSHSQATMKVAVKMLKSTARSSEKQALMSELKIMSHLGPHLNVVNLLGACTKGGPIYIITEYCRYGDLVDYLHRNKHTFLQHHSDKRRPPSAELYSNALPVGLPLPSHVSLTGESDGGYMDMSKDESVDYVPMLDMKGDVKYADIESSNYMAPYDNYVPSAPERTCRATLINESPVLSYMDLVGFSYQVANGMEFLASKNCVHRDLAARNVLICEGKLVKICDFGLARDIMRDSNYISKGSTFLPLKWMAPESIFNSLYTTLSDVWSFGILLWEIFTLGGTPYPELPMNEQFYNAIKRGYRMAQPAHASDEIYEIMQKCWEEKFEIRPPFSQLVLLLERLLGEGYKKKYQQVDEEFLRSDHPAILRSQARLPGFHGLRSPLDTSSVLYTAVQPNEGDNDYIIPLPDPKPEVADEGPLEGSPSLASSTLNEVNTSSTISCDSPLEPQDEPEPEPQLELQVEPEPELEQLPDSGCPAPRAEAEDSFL
Description: HTRF kinEASE TK (Cat.62TK0PEC, Cisbio)
PDGFR β enzyme (Cat.P3082, Invitrogen)
1 mL 1×Kinase Buffer includes 200 μL 5×Enzyme buffer, 5 μL 1M MgCl2, 1 μL 1M DTT, 1 μL 1M MnCl2, 20 μL 2500 nM SEB, 773 μL ddH2O.
TK-Substrate and ATP are diluted to 2.5 times of reaction concentration with 1×PDGFR β Kinase Buffer.
5×PDGFR β enzyme working solution is prepared with 1×PDGFR β kinase buffer.
4×Sa-XL665 working solution is prepared with Detection Buffer.
TK-Ab-Cryptate is diluted 100 times with Detection Buffer to use as working solution.

PI3K α = molecular target: T2, PI3K α (Homo sapiens, UniProt P42336); experiment: Inhibitory activity to PI3K α, PI 3-Kinase (human) HTRF Assay kit; settings: read-out: % Inhibition Rate to PI3K α
T2 construct: purchased Millipore 14-602
T2 sequence (P42336 whole entry): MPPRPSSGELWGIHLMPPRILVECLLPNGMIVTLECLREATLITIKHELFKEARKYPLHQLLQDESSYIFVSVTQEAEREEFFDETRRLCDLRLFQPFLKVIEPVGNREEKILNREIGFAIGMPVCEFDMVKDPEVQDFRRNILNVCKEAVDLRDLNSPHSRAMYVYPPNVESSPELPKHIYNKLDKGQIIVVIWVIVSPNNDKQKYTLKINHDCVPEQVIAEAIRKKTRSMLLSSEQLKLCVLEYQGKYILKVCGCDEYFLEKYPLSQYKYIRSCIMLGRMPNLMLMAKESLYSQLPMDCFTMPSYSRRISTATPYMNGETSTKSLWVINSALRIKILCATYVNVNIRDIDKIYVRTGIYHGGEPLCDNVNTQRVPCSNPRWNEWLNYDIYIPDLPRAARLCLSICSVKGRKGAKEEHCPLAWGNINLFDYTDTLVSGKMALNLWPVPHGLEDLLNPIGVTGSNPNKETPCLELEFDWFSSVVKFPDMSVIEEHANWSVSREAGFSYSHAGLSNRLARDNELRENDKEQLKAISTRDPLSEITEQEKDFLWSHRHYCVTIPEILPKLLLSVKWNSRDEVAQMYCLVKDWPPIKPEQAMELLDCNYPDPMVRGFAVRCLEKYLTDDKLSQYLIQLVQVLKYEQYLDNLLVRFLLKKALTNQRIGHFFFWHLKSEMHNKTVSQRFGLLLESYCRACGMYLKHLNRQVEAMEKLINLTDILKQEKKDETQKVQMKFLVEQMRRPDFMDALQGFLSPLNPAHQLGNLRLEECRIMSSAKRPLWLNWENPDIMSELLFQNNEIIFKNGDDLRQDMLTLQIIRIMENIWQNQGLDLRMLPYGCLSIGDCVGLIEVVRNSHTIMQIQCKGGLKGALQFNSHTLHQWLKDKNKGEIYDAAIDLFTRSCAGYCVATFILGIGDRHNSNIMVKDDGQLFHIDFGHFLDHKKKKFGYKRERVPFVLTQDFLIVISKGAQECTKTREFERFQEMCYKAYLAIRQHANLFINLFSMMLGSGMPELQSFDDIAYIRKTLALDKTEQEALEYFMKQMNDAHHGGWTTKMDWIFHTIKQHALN
T2 sequence (P27986 whole entry partner): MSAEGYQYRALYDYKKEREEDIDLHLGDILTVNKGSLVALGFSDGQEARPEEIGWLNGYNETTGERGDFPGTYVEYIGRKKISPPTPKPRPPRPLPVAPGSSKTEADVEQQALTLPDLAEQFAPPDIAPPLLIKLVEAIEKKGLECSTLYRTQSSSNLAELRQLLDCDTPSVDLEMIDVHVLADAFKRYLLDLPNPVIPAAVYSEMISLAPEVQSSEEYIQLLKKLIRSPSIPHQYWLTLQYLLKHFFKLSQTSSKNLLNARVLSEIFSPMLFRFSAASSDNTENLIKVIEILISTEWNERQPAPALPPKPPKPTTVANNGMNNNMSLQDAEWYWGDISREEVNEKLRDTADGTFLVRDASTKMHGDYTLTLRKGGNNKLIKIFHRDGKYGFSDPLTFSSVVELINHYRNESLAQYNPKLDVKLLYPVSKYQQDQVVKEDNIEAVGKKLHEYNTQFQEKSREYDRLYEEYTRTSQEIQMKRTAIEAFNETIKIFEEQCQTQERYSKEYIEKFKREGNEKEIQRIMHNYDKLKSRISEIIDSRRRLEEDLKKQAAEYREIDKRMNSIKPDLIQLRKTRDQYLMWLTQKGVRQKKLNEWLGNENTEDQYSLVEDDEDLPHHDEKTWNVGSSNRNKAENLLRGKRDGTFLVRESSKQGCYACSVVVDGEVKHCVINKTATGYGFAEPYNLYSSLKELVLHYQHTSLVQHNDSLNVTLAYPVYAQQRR
From the text: (§1) Study on the inhibitory activity of the compounds of present invention to PI 3κα, PI3κδ and PI3κγ. Two or three concentrations of the compounds are selected to preliminary screening to calculate respectively the activity inhibition rate of the compounds of corresponding concentrations to enzyme, then the compounds with better activity are selected by preliminary screening for IC50 test.
(§2) PI 3-Kinase (human) HTRF™ Assay kit (Cat.33-017, Millipore)
PI 3k α (Cat.14-602, Millipore)
(§3) 4× Reaction Buffer (Cat.33-002, Millipore) is diluted with ddH2O to 1.33×, and 1M DTT is added to make the final concentration as 6.67 mM. For example, 10 μL DTT is added into 500 μL 4× Reaction Buffer, and water is added to 1.5 mL.
(§4) The Test compounds are dissolved with DMSO to 1 mM as storage liquid. 2 μL of each of storage liquid is added into 48 μL ddH2O, to obtain the 40 μM compounds solution containing 4% DMSO. After mixing, 3 μL of each of the solution is added into 27 μL 4% DMSO (in ddH2O) to obtain the 4 μM compounds solution. 5 μL of each dilute solution is added into 384-well plates, then the final concentration of the compounds in the 20 μL final kinase reaction system is 10 μM and 1 μM respectively contained 1% DMSO. The dilution methods of compounds are similar to the preliminary screening in IC50 test.
(§5) 2×PIP2 working fluid is prepared with 1.33× reaction buffer to the final concentration of 20 μM.
The screening concentration of PI 3k α kinase: 8 ng/well,
(§6) Kinase is diluted with 2×PIP2 operating fluid, the concentration of kinase operating fluid is 2 times of screening concentration.
(§7) 10 mM ATP is diluted with 1.33× reaction buffer to 400 μM. The concentration of ATP is 100 μM in 20 μL kinase reaction system.
(§8) Stop A and Stop B are mixed according to the proportion of 3:1, and are placed for 2 hours at room temperature to obtain the stop solution available.
(§9) DM C, DM A and DM B are mixed according to the proportion of 18:1:1, and are placed for 2 hours at room temperature to obtain the detection solution available.

PI3 K γ = molecular target: T3, PI3 K γ (Homo sapiens, UniProt P48736); experiment: Inhibitory activity to PI3K γ, PI 3-Kinase (human) HTRF Assay kit; settings: read-out: Inhibition rate % to PI3 K γ
T3 construct: purchased Biology, Medicilon
T3 sequence (P48736 whole entry): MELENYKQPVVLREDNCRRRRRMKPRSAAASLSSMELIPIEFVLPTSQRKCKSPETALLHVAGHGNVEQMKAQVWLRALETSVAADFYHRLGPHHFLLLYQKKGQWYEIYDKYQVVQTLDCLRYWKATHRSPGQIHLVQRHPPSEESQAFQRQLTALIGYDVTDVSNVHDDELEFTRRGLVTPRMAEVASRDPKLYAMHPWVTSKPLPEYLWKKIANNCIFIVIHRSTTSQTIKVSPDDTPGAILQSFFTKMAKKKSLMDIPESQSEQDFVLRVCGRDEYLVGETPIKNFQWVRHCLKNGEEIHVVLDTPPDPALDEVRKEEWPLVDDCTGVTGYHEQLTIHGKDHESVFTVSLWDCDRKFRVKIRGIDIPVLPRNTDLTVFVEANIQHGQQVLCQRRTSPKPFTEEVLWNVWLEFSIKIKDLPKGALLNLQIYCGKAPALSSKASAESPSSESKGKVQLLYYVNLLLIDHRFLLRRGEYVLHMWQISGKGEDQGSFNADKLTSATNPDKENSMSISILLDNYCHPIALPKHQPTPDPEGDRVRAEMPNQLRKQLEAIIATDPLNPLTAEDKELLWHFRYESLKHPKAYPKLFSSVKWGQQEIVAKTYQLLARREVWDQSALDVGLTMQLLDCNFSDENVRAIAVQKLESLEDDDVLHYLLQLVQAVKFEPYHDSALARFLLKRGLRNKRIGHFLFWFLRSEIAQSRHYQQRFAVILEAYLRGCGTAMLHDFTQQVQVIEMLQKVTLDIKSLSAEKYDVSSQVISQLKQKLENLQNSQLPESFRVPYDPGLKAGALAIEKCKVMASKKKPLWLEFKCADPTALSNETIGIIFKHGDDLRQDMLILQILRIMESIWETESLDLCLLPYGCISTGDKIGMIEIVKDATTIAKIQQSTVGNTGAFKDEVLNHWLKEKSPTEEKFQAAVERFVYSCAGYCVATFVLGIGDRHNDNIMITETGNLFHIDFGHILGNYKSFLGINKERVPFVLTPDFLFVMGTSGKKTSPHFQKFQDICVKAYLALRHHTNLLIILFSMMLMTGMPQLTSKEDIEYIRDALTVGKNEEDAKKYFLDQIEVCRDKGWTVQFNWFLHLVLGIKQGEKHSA
From the text: as §1, §2
PI 3k γ (Biology, Medicilon)
as §3, §4, §5
The screening concentration of PI 3k γ kinase: 80 ng/well,
as §6, §7, §8, §9

PI3Kδ = molecular target: T4, PI3Kδ (Homo sapiens, UniProt O00329); experiment: Inhibitory activity to PI3K δ, PI 3-Kinase (human) HTRF Assay kit; settings: read-out: Inhibition rate % to PI3Kδ; for inhibition at 1 µM: 1 μM (Table 7); for inhibition at 10 µM: 10 μM (Table 7)
T4 construct: purchased Millipore 14-604
T4 sequence (O00329 whole entry): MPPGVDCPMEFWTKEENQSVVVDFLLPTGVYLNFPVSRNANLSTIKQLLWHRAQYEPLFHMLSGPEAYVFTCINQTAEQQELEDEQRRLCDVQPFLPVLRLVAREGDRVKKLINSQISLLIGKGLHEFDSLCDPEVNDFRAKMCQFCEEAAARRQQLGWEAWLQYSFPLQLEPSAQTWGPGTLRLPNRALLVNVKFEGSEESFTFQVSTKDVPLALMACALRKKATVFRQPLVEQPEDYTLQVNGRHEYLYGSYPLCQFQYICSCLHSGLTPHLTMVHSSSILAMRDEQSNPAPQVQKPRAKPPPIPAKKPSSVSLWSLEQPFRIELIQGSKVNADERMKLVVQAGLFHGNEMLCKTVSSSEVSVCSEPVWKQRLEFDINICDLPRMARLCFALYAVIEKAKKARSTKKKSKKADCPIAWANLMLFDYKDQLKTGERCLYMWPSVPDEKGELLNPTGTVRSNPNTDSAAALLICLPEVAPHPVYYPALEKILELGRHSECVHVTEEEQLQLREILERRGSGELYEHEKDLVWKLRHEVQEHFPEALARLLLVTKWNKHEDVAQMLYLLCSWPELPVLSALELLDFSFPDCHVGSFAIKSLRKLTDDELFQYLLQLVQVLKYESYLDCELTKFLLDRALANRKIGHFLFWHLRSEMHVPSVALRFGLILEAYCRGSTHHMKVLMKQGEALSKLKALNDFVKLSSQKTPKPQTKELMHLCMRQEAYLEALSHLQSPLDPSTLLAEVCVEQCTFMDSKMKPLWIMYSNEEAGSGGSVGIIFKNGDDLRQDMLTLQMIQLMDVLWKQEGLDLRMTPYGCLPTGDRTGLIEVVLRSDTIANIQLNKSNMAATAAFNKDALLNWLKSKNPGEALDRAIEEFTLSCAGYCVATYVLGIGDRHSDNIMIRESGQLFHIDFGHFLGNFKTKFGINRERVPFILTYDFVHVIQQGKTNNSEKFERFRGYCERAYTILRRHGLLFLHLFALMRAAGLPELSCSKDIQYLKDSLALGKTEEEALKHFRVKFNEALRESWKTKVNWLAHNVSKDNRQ
T4 sequence (P27986 whole entry partner): as the sequence (P27986 whole entry partner) above
Description: Study on the inhibitory activity of the compounds of present invention to PI 3κα, PI3κδ and PI3κγ.
as §2
For example, 10 μL DTT is added into 500 μL 4× Reaction Buffer, and water is added to 1.5 mL.
The Test compounds are dissolved with DMSO to 1 mM as storage liquid. 2 μL of each of storage liquid is added into 48 μL ddH2O, to obtain the 40 μM compounds solution containing 4% DMSO. After mixing, 3 μL of each of the solution is added into 27 μL 4% DMSO (in ddH2O) to obtain the 4 μM compounds solution. […]
The screening concentration of PI 3k δ kinase: 2 ng/well,
as §6
The concentration of ATP is 100 μM in 20 μL kinase reaction system.
as §8, §9

## c1cnc2ccc(Nc3nc(OC4CCC4)c4nc[nH]c4n3)cc2c1 [MED1007-97]
PDGFR β enzyme
  inhibition at 1 µM: 98.4%
  inhibition at 10 µM: 99.5%
PI3K α
  inhibition at 1 µM: 56.3%
  inhibition at 10 µM: 114%
PI3 K γ
  inhibition at 1 µM: 74.7%
  inhibition at 10 µM: 77%
PI3Kδ
  inhibition at 1 µM: 72.3%
  inhibition at 10 µM: 88.5%

## c1ccc(-c2ccnc3ccc(Nc4nc(NC5CC5)c5ncn(C6CCNCC6)c5n4)cc23)cc1 [MED1007-66, N6-cyclopropyl-N2-(4-phenylquinoline-6-yl)-9-(piperidine-4-yl)-9H-purine-2,6-diamine]
PDGFR β enzyme
  inhibition at 1 µM: 17%
  inhibition at 10 µM: 14.5%
PI3K α
  inhibition at 1 µM: -2.28%
  inhibition at 10 µM: -4.35%
PI3 K γ
  inhibition at 1 µM: 1.48%
  inhibition at 10 µM: -2.46%
PI3Kδ
  inhibition at 1 µM: 4.75%
  inhibition at 10 µM: 19.8%

## COc1ccccc1-c1ccnc2ccc(Nc3nc(NC4CC4)c4nc[nH]c4n3)cc12 [MED1007-86, N6-cyclopropyl-N2-(4-(2-methoxyphenyl)quinoline-6-yl)-9H-purine-2,6-diamine]
PDGFR β enzyme
  inhibition at 1 µM: -5.49%
  inhibition at 10 µM: -3.13%
PI3K α
  inhibition at 1 µM: 19.2%
  inhibition at 10 µM: 39.6%
PI3 K γ
  inhibition at 1 µM: 8.35%
  inhibition at 10 µM: 23.1%
PI3Kδ
  inhibition at 1 µM: 27.3%
  inhibition at 10 µM: 66.4%

## COc1ccc(-c2ccnc3ccc(Nc4nc(NC5CC5)c5nc[nH]c5n4)cc23)cc1OC [MED1007-84, N6-cyclopropyl-N2-(4-(3,4-dimethoxyphenyl)quinoline-6-yl)-9H-purine-2,6-diamine]
PDGFR β enzyme
  inhibition at 1 µM: -8.59%
  inhibition at 10 µM: 13.4%
PI3K α
  inhibition at 1 µM: 58.7%
  inhibition at 10 µM: 99.2%
PI3 K γ
  inhibition at 1 µM: 26.6%
  inhibition at 10 µM: 34.2%
PI3Kδ
  inhibition at 1 µM: 71.8%
  inhibition at 10 µM: 101%

## CSc1ccccc1-c1ccnc2ccc(Nc3nc(NC4CC4)c4nc[nH]c4n3)cc12 [MED1007-87, N6-cyclopropyl-N2-(4-(2-(methylthio)phenyl)quinoline-6-yl)-9H-purine-2,6-diamine]
PDGFR β enzyme
  inhibition at 1 µM: -7.6%
  inhibition at 10 µM: -4.13%
PI3K α
  inhibition at 1 µM: 13.8%
  inhibition at 10 µM: 60.6%
PI3 K γ
  inhibition at 1 µM: -3.76%
  inhibition at 10 µM: 29.5%
PI3Kδ
  inhibition at 1 µM: 23%
  inhibition at 10 µM: 80%

## COc1cccc(-c2ccnc3ccc(Nc4nc(NC5CCC5)c5nc[nH]c5n4)cc23)c1 [MED1007-71, N6-cyclobutyl-N2-(4-(3-methoxyphenyl)quinoline-6-yl)-9H-purine-2,6-diamine]
PDGFR β enzyme
  inhibition at 1 µM: 9.74%
  inhibition at 10 µM: 4.5%
PI3K α
  inhibition at 1 µM: 10.4%
  inhibition at 10 µM: 75%
PI3 K γ
  inhibition at 1 µM: 2.55%
  inhibition at 10 µM: 47.4%
PI3Kδ
  inhibition at 1 µM: 24.4%
  inhibition at 10 µM: 64.4%

## OCCNc1nc(Nc2ccc3nccc(-c4ccccc4)c3c2)nc2[nH]cnc12 [MED1007-69, 2-(2-(4-phenylquinoline-6-ylamino)-9H-purine-6-ylamino) ethanol]
PDGFR β enzyme
  inhibition at 1 µM: 11.7%
  inhibition at 10 µM: 31.8%
PI3K α
  inhibition at 1 µM: 38.8%
  inhibition at 10 µM: 78.2%
PI3 K γ
  inhibition at 1 µM: 1.27%
  inhibition at 10 µM: 21.1%
PI3Kδ
  inhibition at 1 µM: 28.9%
  inhibition at 10 µM: 36.4%

## Fc1ccc(-c2ccnc3ccc(Nc4nc(NC5CCC5)c5nc[nH]c5n4)cc23)cc1 [MED1007-72, N6-cyclobutyl-N2-(4-(4-fluorophenyl)quinoline-6-yl)-9H-purine-2,6-diamine]
PDGFR β enzyme
  inhibition at 1 µM: 7.25%
  inhibition at 10 µM: 2.5%
PI3K α
  inhibition at 1 µM: 8.78%
  inhibition at 10 µM: 65.9%
PI3 K γ
  inhibition at 1 µM: 2.15%
  inhibition at 10 µM: 42.7%
PI3Kδ
  inhibition at 1 µM: 33.9%
  inhibition at 10 µM: 89.5%

## OCCCNc1nc(Nc2ccc3nccc(-c4ccccc4)c3c2)nc2[nH]cnc12 [MED1007-73, 3-(2-(4-phenylquinoline-6-ylamino)-9H-purine-6-ylamino) propyl-1-ol]
PDGFR β enzyme
  inhibition at 1 µM: 17%
  inhibition at 10 µM: 35%
PI3K α
  inhibition at 1 µM: 29.7%
  inhibition at 10 µM: 66.1%
PI3 K γ
  inhibition at 1 µM: 5.49%
  inhibition at 10 µM: 28.4%
PI3Kδ
  inhibition at 1 µM: 6.41%
  inhibition at 10 µM: 66.5%

## CCOc1cccc(-c2ccnc3ccc(Nc4nc(NC5CC5)c5nc[nH]c5n4)cc23)c1 [MED1007-83, N6-cyclopropyl-N2-(4-(3-ethoxyphenyl)quinoline-6-yl)-9H-purine-2,6-diamine]
PDGFR β enzyme
  inhibition at 1 µM: 4.5%
  inhibition at 10 µM: 7.6%
PI3K α
  inhibition at 1 µM: 36.2%
  inhibition at 10 µM: 87.6%
PI3 K γ
  inhibition at 1 µM: 5.93%
  inhibition at 10 µM: 24%
PI3Kδ
  inhibition at 1 µM: 22.7%
  inhibition at 10 µM: 68.5%

## c1ccc(-c2ccnc3ccc(Nc4nc(NCC5CCCC5)c5nc[nH]c5n4)cc23)cc1 [MED1007-99, N6-(cyclopentylmethyl)-N2-(4-phenylquinoline-6-yl)-9H-purine-2,6-diamine]
PDGFR β enzyme
  inhibition at 1 µM: 33.1%
  inhibition at 10 µM: 9.88%
PI3K α
  inhibition at 1 µM: 23.3%
  inhibition at 10 µM: 88.3%
PI3 K γ
  inhibition at 1 µM: 4.68%
  inhibition at 10 µM: 39.9%
PI3Kδ
  inhibition at 1 µM: 7.67%
  inhibition at 10 µM: 88.1%

## c1ccc(-c2ccnc3ccc(Nc4nc(OC5CCC5)c5nc[nH]c5n4)cc23)cc1 [MED1007-98]
PDGFR β enzyme
  inhibition at 1 µM: 38.1%
  inhibition at 10 µM: 37.8%
PI3K α
  inhibition at 1 µM: 102%
  inhibition at 10 µM: 118%
PI3 K γ
  inhibition at 1 µM: 32.8%
  inhibition at 10 µM: 105%
PI3Kδ
  inhibition at 1 µM: 71.1%
  inhibition at 10 µM: 105%

## NCCNc1nc(Nc2ccc3nccc(-c4ccccc4)c3c2)nc2[nH]cnc12 [MED1007-70, N6-(2-aminoethyl 1)-N2-(4-phenylquinoline-6-yl)-9H-purine-2,6-diamine]
PDGFR β enzyme
  inhibition at 1 µM: 33.4%
  inhibition at 10 µM: 73%
PI3K α
  inhibition at 1 µM: 26.6%
  inhibition at 10 µM: 62.5%
PI3 K γ
  inhibition at 1 µM: 5.26%
  inhibition at 10 µM: 10.8%
PI3Kδ
  inhibition at 1 µM: 41%
  inhibition at 10 µM: 51.6%
